Earlier results on 17 compounds are cited in patent publication US20150132440A1, “DIPEPTIDE AND TRIPEPTIDE COMPOSITIONS AND USES” (4141 HOLDINGS, LLC, priority 2013, published 2015).

Where a SMILES comes first, the peptide text is derived from it.

Data set [1] has as its system L6 myotubes. The settings on record: for glucose uptake rate: L6 myotubes.
Data set [2] concerns human dermal fibroblasts (HDFs). The settings on record: for protein expression levels of intracellular antioxidant enzymes SOD1, GSH and catalase: H2O2 stressed HDF cells; for H2O2 induced DNA damage / H2O2 induced ROS production / NF-κB activation: HDF cells.
For data set [3] the following is noted: ESR technique.
Data set [4] relates to Caco-2 cells. The settings on record: for inhibition of H2O2-induced IL-8 secretion: Caco-2 cells pretreated with amino acids (1, 2, and 5 mM) for 2 hours, then 1 mM H2O2 for 6 hours, ELISA. On the technique in general: In an ELISA, binding on a coated surface is turned into a signal by an enzyme label.
The subject of data set [5] is isolated skeletal muscles.
Data set [6] concerns glucose transporter GLUT-4. The settings on record: compared with the other WPH components tested; for efficiency in translocating GLUT-4 to the PM: animal skeletal muscle.
Data set [7] has as its system Akt. The settings on record: supplementation.

With Leu-Val, the glucose uptake rate entry in data set [1] is reported as “significant stimulation”.

For “SPP-2: peptide SVMPVVA derived from seaweed pipefish Syngnathus schlegeli”, in data set [2], the “protein expression levels of intracellular antioxidant enzymes SOD1, GSH and catalase” value is “increase”; the “H2O2 induced DNA damage” value is “effectively suppressed”; the “H2O2 induced ROS production” value is recorded as “effectively suppressed”; the NF-κB activation result is listed as “block”. Besides, in data set [3], the “hydroxyl radical scavenging activity” value is “significant”.

Take `CC(C)[C@H](N)C(=O)O` [Val, valine]: in data set [4] (Caco-2 cells), the “GSH S-transferase (GST) activity” value is recorded as “elevated” and the catalase activity entry is reported as “elevated”. Also, in data set [4], the “inhibition of H2O2-induced IL-8 secretion” value (“inhibition” below) is on record as “inhibition of H2O2-induced IL-8 secretion from Caco-2 cells was observed”.

For `CC[C@H](C)[C@H](N)C(=O)N[C@H](C(=O)O)[C@@H](C)CC` [Ile-Ile, L-Isoleucyl-L-isoleucine] (H-Ile-Ile-OH), the glucose uptake rate entry in data set [1] is recorded as “significant stimulation”.

Consider “SPP-1: peptide QLGNLGV derived from seaweed pipefish Syngnathus schlegeli”, for which, in data set [2], the “protein expression levels of intracellular antioxidant enzymes SOD1, GSH and catalase” value is “increase”; the “H2O2 induced DNA damage” value is reported as “effectively suppressed”; the “H2O2 induced ROS production” value was “effectively suppressed”; the NF-κB activation entry is on record as “block”. The “hydroxyl radical scavenging activity” value in data set [3] is recorded as “significant”.

For the compound `NCCCC[C@H](N)C(=O)O` [Lys], the “GSH S-transferase (GST) activity” value in data set [4] (Caco-2 cells) was “increases”. In addition, the “inhibition” value in data set [4] is recorded as “inhibition of H2O2-induced IL-8 secretion from Caco-2 cells was observed”.

For the compound `N[C@@H](Cc1c[nH]c2ccccc12)C(=O)O` [Trp], in data set [4] (Caco-2 cells), the “GSH S-transferase (GST) activity” value is on record as “increases”. Besides, the “inhibition” value in data set [4] is “inhibition of H2O2-induced IL-8 secretion from Caco-2 cells was observed”.

Take `CC(C)C[C@H](N)C(=O)O` [Leu, L-leucine]: in data set [4] (Caco-2 cells), the “GSH S-transferase (GST) activity” value was “elevated” and the catalase activity result is reported as “elevated”. The “inhibition” value in data set [4] was “inhibition of H2O2-induced IL-8 secretion from Caco-2 cells was observed”.

Take `CC[C@H](C)[C@H](N)C(=O)N[C@@H](CC(C)C)C(=O)O` [Ile-Leu, L-Isoleucyl-L-Leucine] (H-Ile-Leu-OH): in data set [1], the glucose uptake rate entry is given as “significant stimulation”. In addition, the glycogen contents result in data set [5] (isolated muscles) is given as “increased”. Moreover, the glucose uptake entry in data set [5] (isolated skeletal muscles) was “stimulated”.

Turning to `CC[C@H](C)[C@H](N)C(=O)O` [Ile, L-isoleucine], in data set [4] (Caco-2 cells), the “GSH S-transferase (GST) activity” value was “elevated” and the catalase activity result is recorded as “elevated”. In data set [4], the “inhibition” value is reported as “inhibition of H2O2-induced IL-8 secretion from Caco-2 cells was observed”. Moreover, in data set [6], the “efficiency in translocating GLUT-4 to the PM” value was “greater efficiency” and the “efficiency of increasing glucose capture by skeletal muscle” value is “greater efficiency”.

For the compound `N[C@@H](Cc1c[nH]cn1)C(=O)O` [His], the “GSH S-transferase (GST) activity” value in data set [4] (Caco-2 cells) is given as “increases”. The “inhibition” value in data set [4] is on record as “inhibition of H2O2-induced IL-8 secretion from Caco-2 cells was observed”.

With `CC(C)C[C@H](NC(=O)[C@@H](N)CC(C)C)C(=O)O` [Leu-Leu, L-Leucyl-L-leucine], in data set [1], the glucose uptake rate result is recorded as “significant stimulation”.

As to `CN(C)CCCn1cc(C2=C(c3c[nH]c4ccccc34)C(=O)NC2=O)c2ccccc21` [GF109203X], the “stimulation of glucose uptake by Ile-Leu under inhibitor treatment” value in data set [1] (L6 cells) and in data set [5] (isolated muscles) was “completely inhibited” each time.

As to Val-Leu, the glucose uptake rate entry in data set [1] is reported as “significant stimulation”.

Consider Ile-Val, for which the glucose uptake rate result in data set [1] was “significant stimulation”.

Regarding `C[C@H](N)C(=O)O` [Ala], the GSH reductase activity entry in data set [4] (Caco-2 cells) is “enhanced”. Moreover, the “inhibition” value in data set [4] is “inhibition of H2O2-induced IL-8 secretion from Caco-2 cells was observed”.

Consider `CC[C@H](C)[C@H](NC(=O)[C@@H](N)CC(C)C)C(=O)O` [L-Leucyl-L-isoleucine] (H-Leu-Ile-OH), for which the “activation of Akt” value in data set [7] is recorded as “activation”. Besides, in data set [6], the “efficiency in translocating GLUT-4 to the PM” value is listed as “greater efficiency” and the “efficiency of increasing glucose capture by skeletal muscle” value is recorded as “greater efficiency”.
